Data on eleven compounds can be found in US4950686A, “Anti-mycoplasma agent” (Shionogi & Co., Ltd., priority 1986, dated 1990).

Values after ≈ are worked out from the molar mass of the structure shown. Counter-ions that a name gives are not always drawn. Like-named read-outs stand apart in the source and are kept apart here.

In general, MIC refers to the least concentration at which growth counts as inhibited.

Common to all, as to format: cell-based
Assay [1] concerns Mycoplasma hyopneumoniae ST-11 (standard strain). Briefly: Anti-mycoplasma activity in vitro (MIC, broth dilution), strain ST-11. As to conditions: Mh ST-11. As to the method: (§1) (1) Anti-mycoplasma activity test in vitro
(§2) MIC values of each of Tropolones were measured on the following strains according to the following method.
(b) Mycoplasma hyopneumoniae
Strain: ST-11 (standard strain)
Medium: 850 ml of Hanks' solution supplemented with 0.5% lactoalbumin, 50 ml of 25% yeast, 100 ml of equine serum and 4-6 ml of 0.5% phenol red (pH 7.4-7.6)
(§3) Method: Broth dilution method
Inoculum: Culture which is incubated for 3-4 days and diluted 10 times with the broth if color of the broth becomes yellow then. If it needs over 4 days until color of the broth becomes yellow, it is further subcultured. This is diluted 10 times with the broth to give inoculum.
Assay is done in the same manner as in the above (a).
Background: In broth dilution the organism is exposed to a series of concentrations in liquid medium.

The subject of assay [2] is Mycoplasma gallisepticum S6 (standard strain). Briefly: Anti-mycoplasma activity in vitro (MIC, broth dilution), strain S6. The conditions noted are these: Mg S6, 37° C., 7 days. As to the method:
as §1, §2
(§4) (a) Mycoplasma gallisepticum
(§5) Medium: Chick PPLO broth supplemented with 20% equine serum (Eiken Kagaku Co., Ltd.)
as §3
(§6) Inoculum: Culture incubated at 37° C. for 24-48 hr which is diluted with broth to 10^6 CCU/ml immediately before the use.
(§7) To 1.6 ml of the broth is added 0.2 ml of an agent which has been subjected to 2-fold dilution and then added 0.2 ml of inoculum, which is incubated at 37° C. for 7 days.

In assay [3] the test system is Mycoplasma gallisepticum T-7-T (wild strain, tylosin-resistant). The assay is described as follows: Anti-mycoplasma activity in vitro (MIC, broth dilution), strain T-7-T. The conditions noted are these: Mg T-7-T, 37° C., 7 days. The protocol:
as §1, §2, §4
T-7-T (wild strain, tylosin-resistant)
as §5, §3, §6, §7

The test system of assay [4] is Mycoplasma gallisepticum MR-1 (wild strain, tylosin-resistant). The assay is described as follows: Anti-mycoplasma activity in vitro (MIC, broth dilution), strain MR-1. The conditions noted are these: Mg MR-1, 37° C., 7 days. As to the method:
as §1, §2, §4
MR-1 (wild strain, tylosin-resistant)
as §5, §3, §6, §7

Where [5] appears, read: Mesomycoplasma hyopneumoniae, read-out: MIC.
The mark [6] stands for this setting: Mycoplasmoides gallisepticum, 168 h, read-out: MIC.

Take `O=c1cccccc1O` [Compound 6, Tropolone magnesium salt]: the MIC in assay [1] turned out to be 0.78 µg/mL; in assay [2], 1.56 µg/mL; in assay [3], 1.56 µg/mL; in assay [4], 1.56 µg/mL.

As for `O=c1cccccc1O` [Compound 8, Tropolone sodium salt], the minimum inhibitory concentration (MIC) in assay [1] (sodium salt) came out at 0.78 µg/mL; in assay [2] (sodium salt) it was 1.56 µg/mL; in assay [3] (sodium salt) it was 1.56 µg/mL; in assay [4] (sodium salt) it was 1.56 µg/mL.

On to `O=c1cccccc1O` [Compound 10, Tropolone n-propylamine salt], for which the minimal inhibitory concentration (MIC) came to 0.78 µg/mL in assay [1], 3.13 µg/mL in assay [2], 3.13 µg/mL in assay [3] and 3.13 µg/mL in assay [4].

Take Tropolone cobalt complex [Compound 3]: the MIC in assay [1] came to 0.78 µg/mL; in assay [2], 1.56 µg/mL; in assay [3], 1.56 µg/mL; in assay [4] it was 3.13 µg/mL.

For `N#CSc1cccccc1=O` [Compound 15, 2-Thiocyanatotropone], the MIC in assay [1] (setting [5]) is 0.39 µg/mL (≈ 2.39 µM); in assay [2] (setting [6]) it was 6.25 µg/mL (≈ 38.3 µM); in assay [3] (setting [6]), 6.25 µg/mL (≈ 38.3 µM); in assay [4] (setting [6]), 12.5 µg/mL (≈ 76.6 µM).

Turning to Tropolone zinc salt [Compound 7], the MIC in assay [1] was determined as 0.78 µg/mL; in assay [2] it was 1.56 µg/mL; in assay [3], 3.13 µg/mL; in assay [4], 3.13 µg/mL.

`O=C(Oc1cccccc1=O)c1ccccc1` [Compound 14, O-Benzoyltropolone]: the MIC in assay [1] (setting [5]) is 0.78 µg/mL (≈ 3.45 µM); in assay [2] (setting [6]), 6.25 µg/mL (≈ 27.6 µM); in assay [3] (setting [6]), 6.25 µg/mL (≈ 27.6 µM); in assay [4] (setting [6]), 6.25 µg/mL (≈ 27.6 µM).

Regarding Tropolone iron complex [Compound 1], the MIC worked out at 0.39 µg/mL in assay [1], 0.78 µg/mL in assay [2], 0.78 µg/mL in assay [3] and 0.56 µg/mL in assay [4].

Regarding `O=c1cccccc1O.O=c1cccccc1O.[Cu]` [Compound 2, Tropolone copper complex], the MIC turned out to be 0.78 µg/mL in assay [1], 3.13 µg/mL in assay [2], 3.13 µg/mL in assay [3] and 3.13 µg/mL in assay [4].

As to `Cc1ccccc(O)c1=O` [Compound 28, 7-Methyltropolone], the minimum inhibitory concentration (MIC) in assay [1] (setting [5]) is 0.1 µg/mL (≈ 0.734 µM); in assay [2] (setting [6]) it was 0.1 µg/mL (≈ 0.734 µM); in assay [3] (setting [6]), 0.39 µg/mL (≈ 2.86 µM); in assay [4] (setting [6]) it was 0.2 µg/mL (≈ 1.47 µM).

Turning to `O=c1cccccc1[O-].O=c1cccccc1[O-].[Ni+2]` [Compound 4, Tropolone nickel complex], the MIC in assay [1] was determined as 0.78 µg/mL; in assay [2], 1.56 µg/mL; in assay [3], 3.13 µg/mL; in assay [4], 3.13 µg/mL.
